The target in this assay is T1, Rabbit reticulocyte 15-lipoxygenase (reticulocyte LOX) (Oryctolagus cuniculus, UniProt P12530).
T1 construct: purchased Biomol Inc. (Plymouth Meeting, Pa., USA)
T1 sequence (P12530 1-663): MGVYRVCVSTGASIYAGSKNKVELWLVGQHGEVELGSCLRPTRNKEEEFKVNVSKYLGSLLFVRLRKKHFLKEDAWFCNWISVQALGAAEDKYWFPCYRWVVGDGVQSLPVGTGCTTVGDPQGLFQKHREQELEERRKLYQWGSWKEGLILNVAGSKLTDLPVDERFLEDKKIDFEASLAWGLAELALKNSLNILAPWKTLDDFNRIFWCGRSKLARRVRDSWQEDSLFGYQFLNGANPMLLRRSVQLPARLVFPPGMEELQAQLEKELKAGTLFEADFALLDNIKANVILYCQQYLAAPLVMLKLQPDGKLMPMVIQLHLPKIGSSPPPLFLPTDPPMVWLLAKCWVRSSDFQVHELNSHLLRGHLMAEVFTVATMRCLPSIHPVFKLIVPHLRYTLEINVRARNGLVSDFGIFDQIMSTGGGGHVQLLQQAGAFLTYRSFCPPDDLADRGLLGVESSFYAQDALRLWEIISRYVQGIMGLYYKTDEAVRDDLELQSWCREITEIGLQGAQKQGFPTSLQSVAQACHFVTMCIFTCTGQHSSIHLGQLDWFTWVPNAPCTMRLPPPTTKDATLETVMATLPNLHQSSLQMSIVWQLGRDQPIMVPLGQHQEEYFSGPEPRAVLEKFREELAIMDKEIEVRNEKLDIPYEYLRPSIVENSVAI
In words: Oxygenation of arachidonoyl lysophospholipids by reticulocyte LOX. The conditions noted are these: reticulocyte LOX 2 units/ml, 50 mM phosphate buffer pH 7.4. The class given is biochemical. The procedure:
Activities of various LOXs were monitored by measuring the increase in absorbance at 234 nm due to the formation of hydroperoxide (ε234=25,000 M^−1 cm^−1) at 25° C. as described before (Smith et al, J. Biol. Chem. 247 (1972) 1038-1047). One unit is defined as the amount of LOXs that can produce one nanomole of conjugated diene per min. The reaction mixture (500 μl) included reticulocyte LOX (2 units/ml) in 50 mM phosphate buffer (pH 7.4), porcine leukocyte LOX (1 unit/ml) in 100 mM phosphate buffer (pH 7.5) containing 5 mM EDTA and 0.03% Tween 20, or soybean LOX-1 (2.5 units/ml) in 50 mM borax buffer (pH 9.0) at 25° C. The reactions were started by including each substrate (100 μM) into the above reaction mixture.
Reticulocyte LOX (2 units/ml), leukocyte LOX (1 units/ml) or soybean LOX-1 (2.5 units/ml) was incubated with each arachidonoyl derivative substrate of various concentrations as described above. The values of kinetic parameters were obtained according to Lineweaver Burke plot analyses as described before (Barroso et al, J. Chromatogr. B. Analyt. Technol. Biomed. Life. Sci. 814 (2005) 21-28).
It is noteworthy that the efficacy of arachidonoyl-lysoPC as a substrate for leukocyte LOX was approximately 10-fold greater than that of arachidonic acid. In an additional study, the oxygenation of arachidonoyl-lysoPC or arachidonoyl-lysoPA by reticulocyte LOX was examined. […]

As to `CCCCC/C=C\C/C=C\C/C=C\C/C=C\CCCC(=O)OCC(O)COP(=O)([O-])OCC[N+](C)(C)C` (stereo not shown) [Arachidonoyl-lysoPC, 1-Arachidonoyl lysophosphatidylcholine], the “Vm/Km value in reticulocyte LOX-catalyzed oxygenation compared with arachidonic acid” value was “somewhat greater than that of arachidonic acid”.

The record behind these values is patent US20070264679A1, “Method for analyzing the activity of lipoxygenase using a water-soluble substrate” (Chungnam National University Industry Collaboration …, priority 2006, published 2007).
